Series [1] relates to multiple myeloma cell line U266B1. As to the kind of experiment: U266 Cell Viability Assay. It counts as cell-based, human. The note with it: Homo sapiens, U-266, 48 h, U266B1 cells, Celltiter-Glo. The method in brief: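 Viability is measured as luciferase signal from CellTiter-Glo following a 48-hour incubation with compound at 37° C. under 5% CO2. Where structures lack drawn stereochemistry, values refer to stereoisomer mixtures.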
On the technique in general: In ATP-based viability assays light output follows the ATP content of the culture.

A short description of series [2]: Liver Microsome Stability Assay (monkey). The note with it: monkey liver microsomes, with NADPH, 1.0 uM compound. On the technique in general: Liver microsomes are a subcellular fraction often used to study metabolism.
Experimental: (§1) Stability of a compound was assessed in the presence of liver microsomes from various sources—mouse, rat, monkey and human liver microsomes. 1.0 uM compound, 0.4% DMSO in 0.1 M Potassium Phosphate with 1.0 mg/mL liver microsomes, were incubated at 37° C. with or without 1 mM NADPH. The samples were quenched at 0, and 30 minutes.
Series [3] can be described thus: Liver Microsome Stability Assay (mouse). The note with it: mouse liver microsomes, with NADPH, 1.0 uM compound.
Experimental: as §1
Series [4] deals with HER3-ss+4aa/Gaussia Luciferase. As to the kind of experiment: Dox-Induced Her3-ss-Gluc Assay. It counts as cell-based. The note with it: 24 hr Dox induction; 293FRT/TO cells; read-out: 24 hr Dox Inducible Her3(ss + 4)Gluc 293FRT/TO: Mean IC50. The method in brief: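 Reporter line: Flp-In 293 T-REx, T-REx-regulated HER3-ss+4aa fused to Gaussia luciferase. Compound co-added with doxycycline after overnight plating, 37° C., 5% CO2.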

Series [5] concerns IL-2-FL/Gaussia Luciferase. The experiment in a line: Dox Induced IL2-FL-Gluc Assay. It counts as cell-based. The note with it: for IC50: 24 hr Dox induction, 293FRT/TO cells, read-out: 24 hr Dox Inducible IL2FLGluc 293FRT/TO: Mean IC50; for 24 hr Dox Inducible IL2FLGluc 293FRT/TO: IL2/PD1: ratio of IL2FLGluc IC50 to PD1ssGluc IC50. The method in brief:
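Doxycycline induces an IL-2(1-153)–Gaussia luciferase fusion in a stable Flp-In 293 T-REx line. Compound exposure runs alongside induction at 37° C.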

Series [6] has as its system multiple myeloma cell line NCI-H929. The experiment in a line: H929 Cell Viability Assay. It counts as cell-based, human. The note with it: Homo sapiens, NCI-H929, 48 h, NCI-H929 cells, Celltiter-Glo. The method in brief:
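Viability is scored by CellTiter-Glo luminescence following a 48-hour treatment at 37° C. Data for structures shown without stereochemistry refer to stereoisomer mixtures.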

The subject of series [7] is TNFα-FL/Gaussia Luciferase. As to the kind of experiment: Dox Induced TNFα-FL-Gluc Assay. The note with it: for IC50: 24 hr Dox induction, 293FRT/TO cells, read-out: 24 hr Dox Inducible TNFaFLGluc 293FRT/TO: Mean IC50; for 24 hr Dox Inducible TNFaFLGluc 293FRT/TO: TNF/PD1: ratio of TNFaFLGluc IC50 to PD1ssGluc IC50. The class given is cell-based. The method in brief: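 Doxycycline-inducible Gaussia luciferase-tagged full-length TNFα (1-233) was expressed in stable Flp-In 293 T-REx cells. Compounds were co-added with doxycycline and incubated at 37 °C, 5% CO2.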

The nature of series [8]: Liver Microsome Stability Assay (rat). The note with it: rat liver microsomes, with NADPH, 1.0 uM compound.
Experimental: as §1
A short description of series [9]: Liver Microsome Stability Assay (human). The note with it: human liver microsomes, with NADPH, 1.0 uM compound.
Experimental: as §1
The test system of series [10] is PD1-ss+10aa/Gaussia Luciferase. As to the kind of experiment: Dox-Induced PD1-ss-Gluc Assay. The class given is cell-based. The note with it: 24 hr Dox induction; 293FRT/TO cells; read-out: 24 hr Dox Inducible PD1ssGluc 293FRT/TO: Mean IC50. The method in brief:
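Flp-In 293 T-REx cells stably carrying a doxycycline-inducible Gaussia luciferase fused to the PD1 signal sequence plus 10 aa were plated the day before. Compound dilutions in DMSO/media containing doxycycline were then added and incubated at 37 °C, 5% CO2. Data for undefined stereochemistry refer to stereoisomer mixtures.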

Seven compounds from patent publication US20230286973A1, “PROTEIN SECRETION INHIBITORS” (KEZAR LIFE SCIENCES, priority 2020, published 2023) can be followed below.

The term EC50 denotes the concentration that produces a half-maximal response.

Some results are limits rather than exact numbers.

Regarding `O=C(Nc1nc([C@H]2CCCN2c2ccc(OC3CCN(C(=O)CO)CC3)cc2)cs1)c1cccn1Cc1ccnc(F)c1` [Compound A139, (R)-1-((2-fluoropyridin-4-yl)methyl)-N-(4-(1-(4-((1-(2-hydroxyacetyl)piperidin-4-yl)oxy)phenyl)pyrrolidin-2-yl)thiazol-2-yl)-1H-pyrrole-2-carboxamide], the EC50 was above 25000 nM in series [1] and 687 nM in [6]. In addition, the “Liver Microsome Stability (Multiple Species): Monkey - % Remaining after 30 min w/NADPH” value in series [2] is reported as 10.7%. In addition, in series [3], the “Liver Microsome Stability (Multiple Species): Mouse - % Remaining after 30 min w/NADPH” value stood at 26%. Besides, the IC50 in series [4] is 37.1 nM; in series [5], 58.3 nM; in series [7] it was 460 nM; in [10] it was 20.3 nM. The “24 hr Dox Inducible IL2FLGluc 293FRT/TO: IL2/PD1” value in series [5] is on record as 2.9. For the same compound, in [7], the “24 hr Dox Inducible TNFaFLGluc 293FRT/TO: TNF/PD1” value came out at 22.6. The “Liver Microsome Stability (Multiple Species): Rat - % Remaining after 30 min w/NADPH” value in [8] amounted to 41.9%. For the same compound, the “Liver Microsome Stability (Multiple Species): Human - % Remaining after 30 min w/NADPH” value in [9] is 30.1%.
With `CC(=O)N1CCC(Oc2ccc(N3CCC[C@@H]3c3csc(NC(=O)c4cccn4Cc4ccnc(F)c4)n3)cc2Cl)CC1` [Compound A140, (R)-N-(4-(1-(4-((1-acetylpiperidin-4-yl)oxy)-3-chlorophenyl)pyrrolidin-2-yl)thiazol-2-yl)-1-((2-fluoropyridin-4-yl)methyl)-1H-pyrrole-2-carboxamide], the EC50 is above 25000 nM in series [1] and 418 nM in series [6]. The “Liver Microsome Stability (Multiple Species): Monkey - % Remaining after 30 min w/NADPH” value in series [2] came out at 8.54%. In addition, the “Liver Microsome Stability (Multiple Species): Mouse - % Remaining after 30 min w/NADPH” value in series [3] was found to be 16.1%. Further, the IC50 in series [4] turned out to be 9.88 nM; in series [5], 33.7 nM; in [7], 361 nM; in series [10], 13.9 nM. The “24 hr Dox Inducible IL2FLGluc 293FRT/TO: IL2/PD1” value in series [5] was determined as 2.4. Also, the “24 hr Dox Inducible TNFaFLGluc 293FRT/TO: TNF/PD1” value in series [7] is on record as 25.9. The “Liver Microsome Stability (Multiple Species): Rat - % Remaining after 30 min w/NADPH” value in [8] came out at 12.8%. Also, in series [9], the “Liver Microsome Stability (Multiple Species): Human - % Remaining after 30 min w/NADPH” value is recorded as 14%.
For `O=C(CO)Nc1ccc(N2CCC[C@@H]2c2csc(NC(=O)c3cccn3Cc3ccnc(F)c3)n2)cc1` [Compound A141, (R)-1-((2-fluoropyridin-4-yl)methyl)-N-(4-(1-(4-(2-hydroxyacetamido)phenyl)pyrrolidin-2-yl)thiazol-2-yl)-1H-pyrrole-2-carboxamide], the EC50 in series [1] is above 25000 nM; in [6], 921 nM. Moreover, in series [2], the “Liver Microsome Stability (Multiple Species): Monkey - % Remaining after 30 min w/NADPH” value is listed as 0.94%. Besides, the “Liver Microsome Stability (Multiple Species): Mouse - % Remaining after 30 min w/NADPH” value in series [3] turned out to be 0.97%. Moreover, the IC50 in series [4] worked out at 43.9 nM; in [5], 54 nM; in series [7], 497 nM; in series [10] it was 27.5 nM. Moreover, the “24 hr Dox Inducible IL2FLGluc 293FRT/TO: IL2/PD1” value in series [5] was determined as 2. The “24 hr Dox Inducible TNFaFLGluc 293FRT/TO: TNF/PD1” value in series [7] was 18. Besides, the “Liver Microsome Stability (Multiple Species): Rat - % Remaining after 30 min w/NADPH” value in [8] is on record as 2.9%. Further, the “Liver Microsome Stability (Multiple Species): Human - % Remaining after 30 min w/NADPH” value in series [9] is recorded as 2.77%.
Turning to `O=C(Nc1nc([C@@H]2CCCN2c2ccc(C(F)(F)F)cc2)cs1)c1cccn1Cc1ccnc(F)c1` [Compound A142, (S)-1-((2-fluoropyridin-4-yl)methyl)-N-(4-(1-(4-(trifluoromethyl)phenyl)pyrrolidin-2-yl)thiazol-2-yl)-1H-pyrrole-2-carboxamide], the results for the EC50 in [1] and in series [6] were above 25000 nM and 16300 nM, respectively. The “Liver Microsome Stability (Multiple Species): Monkey - % Remaining after 30 min w/NADPH” value in series [2] is 29.6%. Moreover, in series [3], the “Liver Microsome Stability (Multiple Species): Mouse - % Remaining after 30 min w/NADPH” value stood at 60.5%. The IC50 in series [4] came to 660 nM; in series [5], 963 nM; in [7], 6870 nM; in [10], 323 nM. In addition, the “24 hr Dox Inducible IL2FLGluc 293FRT/TO: IL2/PD1” value in series [5] stood at 3. Besides, in [7], the “24 hr Dox Inducible TNFaFLGluc 293FRT/TO: TNF/PD1” value is listed as 21.3. For the same compound, in series [8], the “Liver Microsome Stability (Multiple Species): Rat - % Remaining after 30 min w/NADPH” value was 59.4%. In addition, in series [9], the “Liver Microsome Stability (Multiple Species): Human - % Remaining after 30 min w/NADPH” value is given as 20.9%.
For the compound `CC(=O)N1CCC(Oc2ccc(N3CCC[C@@H]3c3csc(NC(=O)c4cccn4Cc4ccnc(F)c4)n3)c(Cl)c2)CC1` [Compound A143, (R)-N-(4-(1-(4-((1-acetylpiperidin-4-yl)oxy)-2-chlorophenyl)pyrrolidin-2-yl)thiazol-2-yl)-1-((2-fluoropyridin-4-yl)methyl)-1H-pyrrole-2-carboxamide], the EC50 in series [1] worked out at 11900 nM; in series [6], 1010 nM. The “Liver Microsome Stability (Multiple Species): Monkey - % Remaining after 30 min w/NADPH” value in [2] was determined as 0.01%. Besides, the “Liver Microsome Stability (Multiple Species): Mouse - % Remaining after 30 min w/NADPH” value in series [3] amounted to 0.06%. Further, the IC50 in series [4] was found to be 64.8 nM; in series [5] it was 31.2 nM; in [7], 209 nM; in series [10] it was 51.9 nM. In addition, the “24 hr Dox Inducible IL2FLGluc 293FRT/TO: IL2/PD1” value in [5] is recorded as 0.6. Also, the “24 hr Dox Inducible TNFaFLGluc 293FRT/TO: TNF/PD1” value in series [7] is on record as 4.03. Also, the “Liver Microsome Stability (Multiple Species): Rat - % Remaining after 30 min w/NADPH” value in series [8] stood at 6.14%. Besides, the “Liver Microsome Stability (Multiple Species): Human - % Remaining after 30 min w/NADPH” value in series [9] came to 0.16%.
`COC(=O)Nc1ccc(N2CCC[C@@H]2c2csc(NC(=O)c3cccn3Cc3ccnc(F)c3)n2)cc1` [Compound A144, methyl (R)-(4-(2-(2-(1-((2-fluoropyridin-4-yl)methyl)-1H-pyrrole-2-carboxamido)thiazol-4-yl)pyrrolidin-1-yl)phenyl)carbamate]: the EC50 is above 25000 nM in series [1] and 15.9 nM in series [6]. Further, in series [2], the “Liver Microsome Stability (Multiple Species): Monkey - % Remaining after 30 min w/NADPH” value is 10.7%. In addition, the “Liver Microsome Stability (Multiple Species): Mouse - % Remaining after 30 min w/NADPH” value in series [3] worked out at 20.2%. Moreover, the IC50 in [4] was determined as 0.81 nM; in series [5], 1.33 nM; in series [7], 5.9 nM; in series [10], 0.36 nM. The “24 hr Dox Inducible IL2FLGluc 293FRT/TO: IL2/PD1” value in [5] amounted to 3.7. In addition, the “24 hr Dox Inducible TNFaFLGluc 293FRT/TO: TNF/PD1” value in series [7] came out at 16.3. Moreover, in series [8], the “Liver Microsome Stability (Multiple Species): Rat - % Remaining after 30 min w/NADPH” value worked out at 34%. For the same compound, the “Liver Microsome Stability (Multiple Species): Human - % Remaining after 30 min w/NADPH” value in [9] came to 36.4%.
With `CCOC(=O)Nc1ccc(N2CCC[C@@H]2c2csc(NC(=O)c3cccn3Cc3ccnc(F)c3)n2)cc1` [Compound A145, ethyl (R)-(4-(2-(2-(1-((2-fluoropyridin-4-yl)methyl)-1H-pyrrole-2-carboxamido)thiazol-4-yl)pyrrolidin-1-yl)phenyl)carbamate], the EC50 was above 25000 nM in series [1] and 13.5 nM in series [6]. Also, the “Liver Microsome Stability (Multiple Species): Monkey - % Remaining after 30 min w/NADPH” value in series [2] is listed as 18%. Moreover, in series [3], the “Liver Microsome Stability (Multiple Species): Mouse - % Remaining after 30 min w/NADPH” value is 25.1%. Besides, the IC50 in [4] was found to be 0.83 nM; in [5], 1.11 nM; in series [7], 7.51 nM; in series [10] it was 0.31 nM. In addition, the “24 hr Dox Inducible IL2FLGluc 293FRT/TO: IL2/PD1” value in series [5] came to 3.6. In addition, the “24 hr Dox Inducible TNFaFLGluc 293FRT/TO: TNF/PD1” value in series [7] was determined as 24. In addition, the “Liver Microsome Stability (Multiple Species): Rat - % Remaining after 30 min w/NADPH” value in series [8] was 46%. In addition, the “Liver Microsome Stability (Multiple Species): Human - % Remaining after 30 min w/NADPH” value in series [9] worked out at 41.5%.
